Measurements taken from patent US20250281465A1, “MOLECULES THAT ENHANCE EXTRACELLULAR VESICLE RELEASE” (priority 2022, published 2025).

Tests used:
mBMDCs = assay: RNA sequencing analysis of mBMDCs; type: cell-based, mouse; details: 5 μM
Protocol: FIGS. 2A-2C. RNA sequencing analysis of mBMDC treated with compound #634, (A) mBMDCs were treated with compound #634 (5 μM) or Veh (0.1% DMSO) or in triplicate for 5 hours. RNA was isolated, and RNA-seq analysis was performed by UC San Diego IGM Genomic Center. Data were analyzed by UC San Diego Moore Cancer Center Biostatistics and Bioinformatics Shared Resources. […] (B) Kyoto Encyclopedia of Genes and Genomes (KEGG) pathway analysis. Normalized enrichment scores (NES) of the top 10 positively and negatively enriched genes sets (FDR≤0.05 and fold change >2).
mBMDCs were treated with compound 634 (5 μM) or Veh (0.1% DMSO) in triplicate for 5 hours. RNA was isolated, and RNA-seq analysis was performed. […] Data were analyzed by UC San Diego Moore Cancer Center Biostatistics and Bioinformatics Shared Resources.
RNA-seq and Data Analysis. mBMDCs (1.5×10^6 cells, 10^6 cells/mL×1.5 mL) were treated with Veh (0.1% DMSO), 634 (5 μM) for 5 hours, and then the total RNA was isolated using Quick-RNA™ Miniprep Kit (Zymo Research). Each group has triplicates. RNA-seq was performed by the sequencing core at the UC San Diego institute for Genomic Medicine Genomics Center. Briefly, paired-ended sequencing was performed on the Illumina NovaSeq 6000. Reads were aligned to the mouse reference genome (mm10) using STAR (ver. 2.5.1), and mRNA expression levels were calculated per gene using RSEM (ver. 1.3.0). Genes were filtered if more than 24 out of 27 of the samples (including compound 634, there were a total of 8 testing compounds and DMSO in triplicated samples) had counts <10. Raw counts were then quantile normalized and used as expression values in the subsequent analysis. Also, if mouse gene IDs corresponded with multiple human genes, the genes with highest variance in expression values were kept (Miller et al., 2011). A total of 11759 genes remained. Limma (liner models for microarray, using Rlimma package) trend tests were used for differential analysis based on log 2 expression values. The Benjamini-Hochberg procedure was applied to control the false discovery rate (FDR). […] RNA-seq data have been deposited in ArrayExpress, https://www.ebi.ac.uk/arrayexpress/(accession no. E-MTAB-12377) (Hayashi, 2022).

C57BL/6 mice = assay: In vivo adjuvanticity with ovalbumin as model antigen; set-up: species or system mouse; details: OVA 20 μg + compound 200 nmol i.m. days 0 and 21, day 28
Protocol: FIGS. 1A-1D. Intracellular Ca^2+ influx screening of 84 HTS hit candidate compounds. (A) THP-1 cells were loaded with the ratiometric Ca^2+ indicator, Fura-2, and treated with lonomycin (ION, 1 μM), Thapsigargin (1 μM), or 84 hit candidate compounds (10 μM) for 25 minutes. Data are presented as the area under the curve (AUG) of OD340/380 ratios corresponding to the intracellular Ca^2+ kinetics. The baseline-subtracted AUG was calculated using GraphPad Prism (GraphPad Software, San Diego, CA). (B) Ca^2+ mobilization by compound #634. mBMDCs were loaded with the ratiometric Ca^2+ indicator, Fura-8, and treated with ION (1 μM), or #634 (2 and 10 μM) for 25 minutes. The dashed line indicates the timing of compounds added. […] OVA-specific IgGI and IgG2c levels in sera were determined by ELISA. **p<0.01, ***p<0.001, ns (not significant) by KruskalWallis tests with Dunn's post hoc test vs. Veh. […]
Eighty-four hit candidate compounds were also screened for in vivo adjuvant activities using C57BL/6 mice and model antigen ovalbumin (OVA). […] Sera were collected on day 28, and OVA-specific immunoglobulins IgG1 and IgG2c were determined by ELISA (FIG. 1D).
The selected 80 compounds were first evaluated for purity and identity by HPLC-MS and compounds which were less than 90% pure were purified by Prep-HPLC. These were then evaluated for vaccine adjuvant activity in mice using a model antigen, ovalbumin (OVA). […]

[1] = 5 hours, FDR≤0.05 and fold change >2

Compound | FC Cdhr1 (mBMDCs; 5 hours vs Veh, down-regulated) | FC Hrh1 (mBMDCs; 5 hours vs Veh, down-regulated) | FC Cdh1 (mBMDCs; 5 hours vs Veh, up-regulated) | FC Htr7 (mBMDCs; 5 hours vs Veh, up-regulated) | FC Oit3 (mBMDCs; 5 hours vs Veh, up-regulated) | FC Ppm1e (mBMDCs; 5 hours vs Veh, up-regulated) | FC Sla2 (mBMDCs; 5 hours vs Veh, up-regulated) | down-regulated genes (mBMDCs; [1]) [genes] | genes with modulated expression compared to Veh (mBMDCs; [1]) [genes] | up-regulated genes (mBMDCs; [1]) [genes] | Anti-OVA IgG1 level in sera (C57BL/6 mice) | Anti-OVA IgG2c level in sera (C57BL/6 mice)
CCOC(=O)c1c(NS(=O)(=O)c2cccc3nsnc23)sc(C)c1C [compound 634, Ethyl 2-(benzo[c][1,2,5]thiadiazole-4-sulfonamido)-4,5-dimethylthiophene-3-carboxylate] | 0.40 | 0.46 | 2.61 | 2.38 | 2.02 | 2.77 | 2.04 | 17 | 103 | 86 | – | –
CCOC(=O)c1c(NS(=O)(=O)c2cccc3c2N=S=N3)sc(C)c1C [#634, ethyl 2-(benzo[c][1,2,5]thiadiazole-4-sulfonamido)-4,5-dimethylthiophene-3-carboxylate] | – | – | – | – | – | – | – | – | – | – | appeared to be higher than the levels from animals immunized without adjuvant, although there were no significant differences | appeared to be higher than the levels from animals immunized without adjuvant, although there were no significant differences
